According to ChEMBL document CHEMBL1667796, “Synthesis and evaluation of phosphonated N-heteroarylcarboxamides as DOXP-reductoisomerase (DXR) inhibitors” (Bioorg Med Chem, 2011):
pIC50: −log10 of the molar value. Activity calls are given as the source filed them. The calls are words filed in the database; no cut-off is given here.

Legend:
Escherichia coli [1] = test: Binding affinity at Escherichia coli DXR by saturation transfer difference NMR spectroscopy
[2] = Inhibition of Escherichia coli DXR assessed as conversion of NADPH to NADP by spectrophotometry; conditions: for pIC50: read-out: IC50
Escherichia coli [3] = test: Inhibition of Escherichia coli DXR assessed as conversion of NADPH to NADP at 500 uM by spectrophotometry
Escherichia coli [4] = test: Inhibition of Escherichia coli DXR assessed as conversion of NADPH to NADP at 0.3 uM by spectrophotometry

| Compound | Activity (Escherichia coli [1]) | pIC50 [2] | inhibition (Escherichia coli [3]) | inhibition (Escherichia coli [4]) [%] | IC50 [2] |
| --- | --- | --- | --- | --- | --- |
| CC(=O)c1sc(NC(=O)CP(=O)(O)O)nc1C | Active | < 2.82 | 16.6% | – | – |
| O=CN(O)CCCP(=O)(O)O | – | – | – | 99.3 | – |
| CCOP(=O)(CC(=O)Nc1ccon1)OCC | Active | 2.93 | 11.7% | – | – |
| CCOP(=O)(CC(=O)Nc1ccccn1)OCC | Active | 3.33 | 58.5% | – | – |
| CCOP(=O)(CC(=O)Nc1nccs1)OCC | Active | 3.14 | 28.9% | – | – |
| O=C(CP(=O)(O)O)Nc1nccs1 | Active | < 2.82 | 7.4% | – | – |
| O=C(CP(=O)([O-])[O-])Nc1ccccn1.[Na+].[Na+] | Active | – | inactive | – | Not Active |
| CCOP(=O)(CC(=O)NCc1ccco1)OCC | Active | 3.39 | 67.7% | – | – |
| O=C(CP(=O)(O)O)NCc1ccco1 | Active | 2.99 | 30% | – | – |
| CCOP(=O)(CC(=O)Nc1nc(C)c(C(C)=O)s1)OCC | Active | 2.89 | – | – | – |
| O=C(CP(=O)(O)O)Nc1ccon1 | Active | < 2.82 | 12.2% | – | – |
